Measurements from ChEMBL document CHEMBL2406941, “Discovery of 'molecular switches' within a GIRK activator scaffold that afford selective GIRK inhibitors” (Bioorg Med Chem Lett, 2013).
The source made the active and inactive calls. The calls are words filed in the database; no cut-off is given here.

Assays:
[1] = biological target: T1, Kir3.1/Kir3.2 (Homo sapiens) (UniProt P48549+P48051); test: Inhibition of GIRK1/2 (unknown origin) relative to SCH3320; format: protein-complex assay; design: concentration or dose not given beside the values; conditions: concentration not given here
Kir3.1/Kir3.4 [2] = biological target: T2, Kir3.1/Kir3.4 (Homo sapiens, UniProt P48544+P48549); test: Inhibition of GIRK1/4 (unknown origin); format: protein-complex assay
T2 sequence (P48549 whole entry): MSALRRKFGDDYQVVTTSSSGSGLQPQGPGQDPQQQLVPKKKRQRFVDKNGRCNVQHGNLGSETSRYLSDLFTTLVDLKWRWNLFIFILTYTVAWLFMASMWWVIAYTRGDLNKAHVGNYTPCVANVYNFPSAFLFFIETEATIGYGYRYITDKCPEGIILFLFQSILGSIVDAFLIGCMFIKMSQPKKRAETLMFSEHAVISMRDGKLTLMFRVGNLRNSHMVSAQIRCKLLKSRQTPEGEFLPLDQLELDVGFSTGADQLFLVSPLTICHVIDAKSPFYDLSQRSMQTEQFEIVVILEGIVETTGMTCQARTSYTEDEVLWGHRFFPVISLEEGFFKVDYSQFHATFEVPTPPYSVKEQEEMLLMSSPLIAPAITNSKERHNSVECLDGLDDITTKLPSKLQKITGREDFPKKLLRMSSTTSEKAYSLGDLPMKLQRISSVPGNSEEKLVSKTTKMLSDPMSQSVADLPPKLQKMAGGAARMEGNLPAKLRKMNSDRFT
T2 sequence (P48544 whole entry): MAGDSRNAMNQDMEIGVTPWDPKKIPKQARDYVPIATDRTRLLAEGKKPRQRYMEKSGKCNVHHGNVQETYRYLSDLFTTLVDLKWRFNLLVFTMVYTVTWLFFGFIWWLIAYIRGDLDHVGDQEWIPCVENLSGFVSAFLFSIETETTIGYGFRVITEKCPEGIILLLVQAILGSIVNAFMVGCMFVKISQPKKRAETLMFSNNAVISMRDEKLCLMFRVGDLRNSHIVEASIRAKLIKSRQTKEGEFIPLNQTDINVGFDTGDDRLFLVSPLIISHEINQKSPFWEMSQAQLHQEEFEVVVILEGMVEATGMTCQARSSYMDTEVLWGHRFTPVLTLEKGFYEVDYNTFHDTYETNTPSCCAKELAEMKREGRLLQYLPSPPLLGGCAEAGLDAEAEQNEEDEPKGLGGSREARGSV

[3] = biological target: T3, Kir3.1/Kir3.4 (Homo sapiens) (UniProt P48549+P48544); test: Inhibition of GIRK1/4 (unknown origin) relative to SCH3320; format: protein-complex assay; design: concentration or dose not given beside the values; conditions: concentration not given here
Kir3.1/Kir3.2 [4] = biological target: T4, Kir3.1/Kir3.2 (Homo sapiens, UniProt P48051+P48549); test: Inhibition of GIRK1/2 (unknown origin); format: protein-complex assay
T4 sequence (P48549 whole entry): T2 sequence (P48549 whole entry)
T4 sequence (P48051 whole entry): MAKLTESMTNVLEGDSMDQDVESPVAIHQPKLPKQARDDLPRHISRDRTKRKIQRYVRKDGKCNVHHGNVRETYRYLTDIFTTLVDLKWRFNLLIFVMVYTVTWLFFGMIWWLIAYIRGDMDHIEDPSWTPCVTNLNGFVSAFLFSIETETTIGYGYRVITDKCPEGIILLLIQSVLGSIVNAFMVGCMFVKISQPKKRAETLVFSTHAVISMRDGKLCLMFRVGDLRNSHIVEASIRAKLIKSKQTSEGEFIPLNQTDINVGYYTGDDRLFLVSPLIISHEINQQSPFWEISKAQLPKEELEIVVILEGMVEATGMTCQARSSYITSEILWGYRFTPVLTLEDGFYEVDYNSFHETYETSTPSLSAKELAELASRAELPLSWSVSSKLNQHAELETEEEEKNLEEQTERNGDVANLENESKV

[5] = biological target: T3, Kir3.1/Kir3.4 (Homo sapiens); test: Activation of GIRK1/4 (unknown origin) relative to ML297; format: protein-complex assay
[6] = biological target: T1, Kir3.1/Kir3.2 (Homo sapiens); test: Activation of GIRK1/2 (unknown origin) relative to ML297; format: protein-complex assay
Kir3.1/Kir3.4 [7] = biological target: T2, Kir3.1/Kir3.4; test: Activation of GIRK1/4 (unknown origin); format: protein-complex assay
Kir3.1/Kir3.2 [8] = biological target: T4, Kir3.1/Kir3.2; test: Activation of GIRK1/2 (unknown origin); format: protein-complex assay
[9] = biological target: T5, G protein-activated inward rectifier potassium channel 2 (Homo sapiens) (UniProt P48051); test: Activation of GIRK2 (unknown origin)
T5 sequence (whole entry): T4 sequence (P48051 whole entry)

[10] = biological target: Kir3.2/Kir3.3 (Homo sapiens) (UniProt P48051+Q92806); test: Activation of GIRK2/3 (unknown origin); format: protein-complex assay
[11] = biological target: T1, Kir3.1/Kir3.2 (Homo sapiens); test: Activation of GIRK1/2 (unknown origin) by thallium flux assay relative to control; format: protein-complex assay
[12] = biological target: T3, Kir3.1/Kir3.4 (Homo sapiens); test: Activation of GIRK1/4 (unknown origin) relative to control; format: protein-complex assay
Kir3.1/Kir3.2 [13] = biological target: T4, Kir3.1/Kir3.2; test: Activation of GIRK1/2 (unknown origin) by thallium flux assay; format: protein-complex assay
[14] = Inhibition of GIRK (unknown origin); design: species or system Homo sapiens

SMILES	inhibition [1] [%]	IC50 (Kir3.1/Kir3.4 [2]) [nM]	inhibition [3] [%]	IC50 (Kir3.1/Kir3.2 [4]) [nM]	Efficacy [6] [%]	EC50 (Kir3.1/Kir3.4 [7]) [nM]	EC50 (Kir3.1/Kir3.2 [8]) [nM]	Activity [10]	other results
CC(C)c1cc(NC(=O)Nc2cccc(F)c2)n(-c2ccccc2)n1	77	780	70	2100					
O=C(Nc1cccc(Br)c1)Nc1cc(C2CC2)nn1Cc1ccccc1					44	790	380		Efficacy [5]: 65%
Cc1cc(NC(=O)Nc2ccc(F)c(F)c2)n(CC(F)(F)F)n1					96	1300	460	inactive	Activity [9]: inactive; Efficacy [5]: 103%
O=C(Nc1ccc(F)c(Cl)c1)Nc1cc(CC2CC2)nn1-c1ccccc1	87	310	70	810					
Cc1cc(NC(=O)Nc2ccc(F)c(F)c2)n(-c2ccc(F)cc2)n1					78	540	190	inactive	Activity [9]: inactive; Efficacy [5]: 57%
Cc1cccc(NC(=O)Nc2cc(C3CC3)nn2-c2ccccc2)c1	80	> 30000		850					
CC(C)c1cc(NC(=O)Nc2cccc(C(F)(F)F)c2)n(Cc2ccccc2)n1					38	3500	1700		Efficacy [5]: 10%
O=C(Nc1cccc(Br)c1)Nc1cc(C2CCC2)nn1-c1ccccc1	51	720	69	1900					
O=C(Nc1ccc(F)c(F)c1)Nc1cc(C(F)(F)F)nn1-c1ccccc1								inactive	Activity [9]: inactive
Cc1cc(NC(=O)Nc2ccc(F)c(F)c2)n(Cc2ccccc2)n1					87	110	70	inactive	Activity [9]: inactive; Efficacy [5]: 99%
Cc1ccc(NC(=O)Nc2cc(C(C)C)nn2-c2ccccc2)cc1	100	1800	62	3900					
CC(C)c1cc(NC(=O)Nc2ccc(F)c(F)c2)n(-c2ccccc2)n1	136	1400	150	2000				inactive	Activity [9]: inactive
O=C(Nc1ccc(F)c(F)c1)Nc1cc(C2CCCC2)nn1-c1ccccc1	85	4100	88	5100				inactive	Activity [9]: inactive
O=C(Nc1cccc(Cl)c1)Nc1cc(C2CC2)nn1-c1ccccc1					37	720	1400		Efficacy [5]: 39%
O=C(Nc1cccc(F)c1)Nc1cc(C2CC2)nn1-c1ccccc1	60	> 30000		1200					
O=C(Nc1ccc(F)cc1)Nc1cc(C2CC2)nn1Cc1ccccc1					57	570	350		Efficacy [5]: 90%
Cc1cccc(NC(=O)Nc2cc(C(C)C)nn2-c2ccccc2)c1	93	850	67	2600					
O=C(Nc1cccc(C(F)(F)F)c1)Nc1cc(C2CC2)nn1Cc1ccccc1					35	650	340		Efficacy [5]: 39%
O=C(Nc1cccc(Cl)c1)Nc1cc(CC2CC2)nn1-c1ccccc1	76	340	72	630					
O=C(Nc1cccc(Cl)c1)Nc1cc(C2CCC2)nn1-c1ccccc1	64	480	89	1400					
Cc1cc(NC(=O)Nc2ccc(F)c(F)c2)n(-c2ccccc2)n1						1800		inactive	Efficacy [11]: 194%; Efficacy [12]: 93%; EC50 (Kir3.1/Kir3.2 [13]): 160 nM

SMILES	inhibition [1] [%]	IC50 (Kir3.1/Kir3.4 [2]) [nM]	inhibition [3] [%]	IC50 (Kir3.1/Kir3.2 [4]) [nM]	Efficacy [6] [%]	EC50 (Kir3.1/Kir3.4 [7]) [nM]	EC50 (Kir3.1/Kir3.2 [8]) [nM]	Activity [10]	other results
O=C(Nc1cccc(C(F)(F)F)c1)Nc1cc(C2CCC2)nn1-c1ccccc1	65	690	84	1300					
O=C(Nc1ccc(F)c(F)c1)Nc1cc(-c2ccccc2)nn1-c1ccccc1							> 30000	inactive	Activity [9]: inactive
Cc1cccc(NC(=O)Nc2cc(CC3CC3)nn2-c2ccccc2)c1	83	250	47	520					
O=C(Nc1cccc(C(F)(F)F)c1)Nc1cc(CC2CC2)nn1-c1ccccc1	88	250	45	540					
O=C(Nc1ccc(F)c(F)c1)Nc1cc(CC2CC2)nn1-c1ccccc1	95	560	67	650				inactive	Activity [9]: inactive
Cc1cc(NC(=O)Nc2ccc(F)c(F)c2)n(-c2ccncc2)n1					88	> 30000	> 10000	inactive	Activity [9]: inactive
CC(C)c1cc(NC(=O)Nc2cccc(Cl)c2)n(Cc2ccccc2)n1					35	1700	470		Efficacy [5]: 23%
O=C(Nc1ccc(F)c(Cl)c1)Nc1cc(C2CC2)nn1Cc1ccccc1					47	320	210		Efficacy [5]: 83%
Cc1cc(NC(=O)Nc2ccc(F)c(F)c2)n(-c2ccccn2)n1					78	> 30000	> 10000	inactive	Activity [9]: inactive
CN1CCc2cc(Cl)c(O)cc2[C@@H](c2ccccc2)C1 [SCH-23390]									IC50 [14]: 4000 nM
O=C(Nc1ccc(F)c(Cl)c1)Nc1cc(C2CCC2)nn1-c1ccccc1	70	610	69	1900					
O=C(Nc1cccc(F)c1)Nc1cc(C2CC2)nn1Cc1ccccc1					46	780	530		Efficacy [5]: 85%
O=C(Nc1ccc(F)cc1)Nc1cc(CC2CC2)nn1-c1ccccc1	80	270	54	640					
O=C(Nc1ccc(F)c(F)c1)Nc1cc(C2CC2)nn1-c1ccccc1					32		410	inactive	Activity [9]: inactive
O=C(Nc1cccc(F)c1)Nc1cc(CC2CC2)nn1-c1ccccc1	75	180	72	450					
Cc1ccc(NC(=O)Nc2cc(C3CC3)nn2Cc2ccccc2)cc1					35	920	570		Efficacy [5]: 46%
O=C(Nc1ccc(F)c(F)c1)Nc1cc(C2CCC2)nn1-c1ccccc1								inactive	Activity [9]: inactive
Cc1cc(NC(=O)Nc2ccccc2)n(-c2ccccc2)n1						690		inactive	Efficacy [11]: 97%; Efficacy [12]: 93%; EC50 (Kir3.1/Kir3.2 [13]): 1400 nM
CSc1cccc(NC(=O)Nc2cc(C3CC3)nn2-c2ccccc2)c1	86	> 30000		950					
CC(C)c1cc(NC(=O)Nc2cccc(C(F)(F)F)c2)n(-c2ccccc2)n1	62	1300	100	2100					
